“And” between values parts separate entries of the source, which are not always exact repeats. Equal entries are not always repeated. Each block holds one compound with its values, some of them ahead of it.
Columns and labels:
IL-22 = test: Second animal study: IL-22 in skin homogenates (ELISA); format: in vivo, BALB/c mice
Source text: (§1) In both studies, typical features of psoriasis, namely erythema, scaling, and skin thickness, were induced by the application of 5% w/w imiquimod (IMQ) cream on the dorsal skin of BALB/c mice over a period of 6 consecutive days. Animals that developed psoriasis-like symptoms were used for studying the efficacy of the fenoldopam topical compositions. In the fenoldopam-treated groups, the animals received imiquimod only for the first two days. From the third day of the study, the animals received imiquimod and fenoldopam for the next four days. First Animal Study: The different treatment groups of mice used in the first animal study were as following: the SHAM group in the study represents mice which were shaven on the dorsal side without any treatment; negative control group represents the typical psoriatic model induced by imiquimod 5% (IMQ); positive control group represents the mice induced with psoriasis by imiquimod and then treated with the marketed steroid betamethasone valerate (IMQ BMV); and treatment groups represent the mice induced with psoriasis by imiquimod and then treated with a topical dose of 1 mg/cm^2 fenoldopam using different compositions of fenoldopam, such as solution (IMQ FD), water-washable ointment (IMQ WB 45/55), or anhydrous gel (IMQ AG BHT) compositions.
(§2) The second animal study was conducted in order to test additional topical compositions of fenoldopam with different strengths (0.01%, 0.1% and 1% of fenoldopam), as well as the effect of systemic administration of fenoldopam. […]
(§3) The skin homogenates obtained from mice of the different groups were analyzed using ELISA for quantification of IL-17, IL-23, TNF-α, and IL-22 levels, as the selected interleukins are the typical inflammatory markers of psoriasis.

[1] = tested on: IMQ-induced psoriasis model; test: First animal study: histopathology (H&E) of dorsal skin; format: in vivo, BALB/c mice; settings: vs. IMQ-treated group
Source text: (§4) The effect of topical compositions on the treatment of psoriasis has been tested in two animal studies. In both studies, typical features of psoriasis, namely erythema, scaling, and skin thickness, were induced by the application of 5% w/w imiquimod (IMQ) cream on the dorsal skin of BALB/c mice over a period of 6 consecutive days. Animals that developed psoriasis-like symptoms were used for studying the efficacy of the fenoldopam topical compositions. In the fenoldopam-treated groups, the animals received imiquimod only for the first two days. From the third day of the study, the animals received imiquimod and fenoldopam for the next four days. […]

[2] = tested on: IMQ-induced psoriasis model; test: Second animal study: IMQ-induced psoriasis, phenotype and PASI scoring; format: in vivo, BALB/c mice; settings: for Psoriasis symptoms (phenotypic images: erythema, scaling, skin thickness): compared to negative control
Source text: as §1, §2

TNF-α [3] = test: First animal study: TNF-α in skin homogenates (ELISA); format: in vivo, BALB/c mice; settings: for Level of TNF-α: vs. IMQ group
Source text: as §1, with “The effect of topical compositions on the treatment of psoriasis has been tested in two animal studies. In both” for “In both”
(§5) An IMQ-induced psoriasis model reproduces biochemical and histopathological parameters characteristic of human psoriatic lesions. Topical application of the IMQ cream increased levels of cytokines such as IL-23, TNF-α, and IL-17 in the treated skin tissues. The skin homogenates obtained from mice of different groups were analyzed using ELISA for quantification of IL-17, IL-23, and TNF-α, levels as the selected interleukins are the typical inflammatory markers of psoriasis. […] The effect of fenoldopam was as effective as the reference topical treatment with the marketed steroid.

[4] = tested on: IMQ-induced psoriasis model; test: First animal study: IMQ-induced psoriasis, phenotype and PASI scoring; format: in vivo, BALB/c mice
Source text: as §4
Psoriatic area and severity index (PASI) scoring has been analyzed to determine the efficacy of the fenoldopam compositions of the present invention with appropriate controls as part of the study. FIG. 11 depicts PASI scoring including body weight, erythema, scaling, and skin thickness determined during the study. […]

IL-17 [5] = test: Second animal study: IL-17 in skin homogenates (ELISA); format: in vivo, BALB/c mice
Source text: as §1, §2, §3

IL-17 [6] = test: First animal study: IL-17 in skin homogenates (ELISA); format: in vivo, BALB/c mice; settings: for Level of IL-17: vs. IMQ group
Source text: as §1, with “The effect of topical compositions on the treatment of psoriasis has been tested in two animal studies. In both” for “In both”
as §5

[7] = tested on: IMQ-induced psoriasis model; test: Second animal study: histopathology (H&E) of skin; format: in vivo, BALB/c mice; settings: skin collected on the 7th day
Source text: as §1, with “BHT) compositions. […]” for “BHT) compositions.”

IL-23 [8] = test: First animal study: IL-23 in skin homogenates (ELISA); format: in vivo, BALB/c mice; settings: for Level of IL-23: vs. IMQ group
Source text: as §1, with “The effect of topical compositions on the treatment of psoriasis has been tested in two animal studies. In both” for “In both”
as §5

IL-23 [9] = test: Second animal study: IL-23 in skin homogenates (ELISA); format: in vivo, BALB/c mice
Source text: as §1
The second animal study was conducted in order to test additional topical compositions of fenoldopam with different strengths (0.01%, 0.1% and 1% of fenoldopam), as well as the effect of systemic administration of fenoldopam. The different groups of mice used in the second animal study were as following: the SHAM group in the study represents mice which were shaven on the dorsal side without any treatment; negative control group represents the typical psoriatic model induced by imiquimod 5% (IMQ); positive control group represents the mice induced with psoriasis by imiquimod and then treated with the marketed steroid betamethasone valerate (IMQ BMV); and treatment groups represent the mice induced with psoriasis by imiquimod and then treated with a topical dose of various compositions of fenoldopam: water-washable base (IMQ_WB45/55-0.01%, IMQ_WB45/55-0.1%, IMQ_WB45/55-1% or IMQ_WB45/55_1% No citric acid), or oleaginous ointment composition (IMQ_OB 0.01%, IMQ_OB 0.1% or IMQ_OB […]). An additional group of mice received systemic Fenoldopam by intraperitoneal injection (IMQ_FD_IP).
as §3

TNF-α [10] = test: Second animal study: TNF-α in skin homogenates (ELISA); format: in vivo, BALB/c mice
Source text: as §1, §2, §3

[11] = Stability of fenoldopam in solution at different pH values (HPLC, UV detector 225 nm); format: physicochemical
Protocol: In order to evaluate the stability of fenoldopam in solutions maintained at various pHs above 4 and further solutions that were further adjusted back to an acidic pH, the following experiment was conducted. Fenoldopam mesylate was first dissolved in buffer phosphate at pH 2.5, in a concentration of 0.1 mg/mL (sample A). The solution was then divided into 5 samples:
Sample A: remains at pH 2.5
Sample B: pH was adjusted to pH 3.6 with NaOH.
Sample C: pH was adjusted to pH 6.6 with NaOH.
Sample D: pH was adjusted to pH 7.2 with NaOH.
Sample E: pH was adjusted to pH 9.3 with NaOH.
All samples were then analyzed by HPLC and UV detector at 225 nm. Table 1 represents the results obtained by the HPLC analysis conducted with the different fenoldopam samples.

[12] = Fenoldopam stability in solutions at different pH after 72 hours (Mass spectrometry); format: physicochemical
Protocol: FIGS. 1a-1e depict the effect of pH on fenoldopam stability. FIGS. 1a-e depict fenoldopam stability in solutions at different pH levels as determined by Mass Spectra (MS). Fenoldopam samples at a pH of 2.5 (FIG. 1a) and samples which were adjusted to a pH of 3.6 (FIG. 1b), 6.6 (FIG. 1c) and 7.2 (FIG. 1d) with NaOH were maintained for 72 hours, after which MS analysis was performed. FIG. 1e depicts the possible degradation products of fenoldopam obtained following exposure to a pH above 4.
Additional fenoldopam samples (Samples A3-D3) were maintained at a pH of 2.5, 3.6, 6.6 and 7.2 without adjustment back to pH 2.5 and were analyzed after 72 hours by HPLC at 225 nm and Mass spectrometry (MS).

Compound: CCCCC(=O)O[C@]1(C(=O)CO)[C@@H](C)C[C@H]2[C@@H]3CCC4=CC(=O)C=C[C@]4(C)[C@@]3(F)[C@@H](O)C[C@@]21C [BMV, betamethasone valerate]
Fold difference in IL-22 levels (↓, vs. IMQ) (IL-22; listed as IMQ_BMV): 1.55 ↓ fold
Fold difference in IL-22 levels (↓, vs. IMQ) (IL-22; listed as positive control): 1.55 fold
Histopathology (H&E): psoriatic features [1]: decline in the intensity of psoriatic features
Psoriasis symptoms (phenotypic images: erythema, scaling, skin thickness) [2]: remission of the psoriasis symptoms
Psoriasis symptoms (phenotypic images: erythema, scaling, skin thickness) ([2]; listed as IMQ_BMV): amelioration of psoriatic symptoms
Decrease in TNF-α levels in comparison with the IMQ group (TNF-α [3]; first animal study): 2.75 fold
Level of TNF-α (TNF-α [3]): inhibited
Psoriatic symptoms (phenotypic images of dorsal skin) ([4]; IMQ-treated mice, topical treatment for four days, 1 mg/cm^2 fenoldopam): amelioration of psoriatic symptoms
PASI scores over the treatment period ([4]; scale of 0-4, vs. negative control): declines in PASI scores
Fold difference in IL-17 levels (↓, vs. IMQ) (IL-17 [5]; listed as IMQ_BMV): 1.43 ↓ fold
Fold difference in IL-17 levels (↓, vs. IMQ) (IL-17 [5]; listed as positive control): 1.43 fold
Decrease in IL-17 levels in comparison with the IMQ group (IL-17 [6]; first animal study): 2.74 fold
Level of IL-17 (IL-17 [6]): inhibited
Histopathology (H&E): psoriatic features [7]: ameliorated all of the above-mentioned parameters
Decrease in IL-23 levels in comparison with the IMQ group (IL-23 [8]; first animal study): 2.02 fold
Level of IL-23 (IL-23 [8]): inhibited
Decline in IL-23 levels compared to the negative control (IL-23 [9]; listed as IMQ_BMV): decline in IL-23 levels
Fold difference in IL-23 levels (↓, vs. IMQ) (IL-23 [9]; listed as IMQ_BMV): 1.57 ↓ fold
Fold difference in IL-23 levels (↓, vs. IMQ) (IL-23 [9]; listed as positive control): 1.57 fold
Fold difference in TNF-α levels (↓, vs. IMQ) (TNF-α [10]; listed as IMQ_BMV): 2.21 ↓ fold
Fold difference in TNF-α levels (↓, vs. IMQ) (TNF-α [10]; listed as positive control): 2.21 fold

Compound: CC(C)Cn1cnc2c(N)nc3ccccc3c21 [IMQ, imiquimod]
Fold difference in IL-22 levels (↑, vs. Sham) (IL-22): 1.36 fold and 1.36 ↑ fold
PASI score for erythema, scaling, and thickness on the 6th day [2]: about 3
Increase in the TNF-α level compared to the SHAM group (TNF-α [3]; first animal study): 8.42 fold
Fold difference in IL-17 levels (↑, vs. Sham) (IL-17 [5]): 1.63 fold and 1.63 ↑ fold
Elevation of IL-17 levels compared to the SHAM group (IL-17 [6]; first animal study): 5 fold
Increase of IL-23 levels compared to SHAM group (IL-23 [8]; first animal study): 2.30 fold
Fold difference in IL-23 levels (↑, vs. Sham) (IL-23 [9]): 1.55 fold and 1.55 ↑ fold
Fold difference in TNF-α levels (↑, vs. Sham) (TNF-α [10]): 2.08 fold and 2.08 ↑ fold

RRT-0.9 (%) ([11]; Sample B1: pH 3.6 for 12 hours, then back to pH 2.5 for additional 5 hours): 0.9%
RRT-0.9 (%) ([11]; Sample B2: pH 3.6 for 12 hours, then back to pH 2.5 for additional 48 hours): 0.9%
RRT-0.9 (%) ([11]; Sample B3: pH 3.6 for 72 hours without adjustment back to pH 2.5): 1.0%
RRT-0.9 (%) ([11]; Sample B: pH 3.6 for 12 hours, 0.1 mg/mL, room temperature, protected from light): 0.9%
RRT-0.9 (%) ([11]; Sample C1: pH 6.6 for 12 hours, then back to pH 2.5 for additional 5 hours): 4.0%
RRT-0.9 (%) ([11]; Sample C2: pH 6.6 for 12 hours, then back to pH 2.5 for additional 48 hours): 4.0%
fenoldopam degraded ([11]; Sample C3: 72 hours at pH 6.6): 18%
RRT-0.9 (%) ([11]; Sample C3: pH 6.6 for 72 hours without adjustment back to pH 2.5): 17.5%
RRT-0.9 (%) ([11]; Sample C: pH 6.6 for 12 hours): 4.9%
RRT-0.9 (%) ([11]; Sample D1: pH 7.2 for 12 hours, then pH 2.5 for additional 5 hours): 11.6%
RRT-0.9 (%) ([11]; Sample D2: pH 7.2 for 12 hours, then back to pH 2.5 for additional 48 hours): 11.5%
fenoldopam degraded ([11]; Sample D3: 72 hours at pH 7.2): 50%
RRT-0.9 (%) ([11]; Sample D3: pH 7.2 for 72 hours without adjustment back to pH 2.5): 49.8%
RRT-0.9 (%) ([11]; Sample D: pH 7.2 for 12 hours): 15.8%
Fenoldopam, (%) ([11]; Sample E1: pH 9.3 for 12 hours, then pH 2.5 for additional 5 hours): 2%
Fenoldopam, (%) ([11]; Sample E2: pH 9.3 for 12 hours, then pH 2.5 for additional 48 hours): 2.2%
Fenoldopam, (%) ([11]; Sample E3: pH 9.3 for 72 hours without adjustment back to pH 2.5): No main peak
Fenoldopam, (%) ([11]; Sample E: pH 9.3 for 12 hours): No main peak
RRT-0.9 impurity ([11]; Samples B, B1, B2 (12 hours at pH 3.6, then pH 2.5) and B3 (72 hours at pH 3.6)): less than 1%
RRT-0.9 impurity ([11]; Samples C, C1 and C2 (12 hours at pH 6.6 followed by adjustment back to pH 2.5)): 4%
minor peak of fenoldopam ([11]; Samples E, E1, E2 and E3 (pH 9.3)): ~2%
Appearance of solution ([11]; pH 3.6): pH 3.6 - Clear
Appearance of solution ([11]; pH 6.6): pH 6.6 - yellowish
Appearance of solution ([11]; pH 7.2): pH 7.2 - yellowish
Appearance of solution ([11]; pH 9.3): pH 9.3- yellowish
Stability by MS analysis ([12]; pH of 6.6 and 7.2, after 3 days): formation of several peaks after 3 days
Compound: Oc1ccc(C2CNCCc3c2cc(O)c(O)c3Cl)cc1 (centres unmarked) [Fenoldopam, 6-chloro-2,3,4,5-tetrahydro-1-(4-hydroxyphenyl)-[1H]-3-benzazepine-7,8-diol, methane sulfonate]
Level of TNF-α (TNF-α [3]): inhibited
Level of IL-17 (IL-17 [6]): inhibited
Level of IL-23 (IL-23 [8]): inhibited
Stability by MS analysis ([12]; pH of 2.5 and 3.6, after 3 days): stable after 3 days and showed a single peak
